The supplement of paper PMC10307832

Legend:
Assay in all cases: relative viability (nuclei count vs DMSO), 5 days (fraction); higher = more cells survive
[1] = compound: CC1=C(C=CC(=C1)[N+](=O)[O-])NS(=O)(=O)C2=C(C=CC(=C2)Cl)Cl [FH535] + Cc1nc(Nc2ncc(C(=O)Nc3c(C)cccc3Cl)s2)cc(N2CCN(CCO)CC2)n1 [Dasatinib] (partner 0.075 µM)
How it was run: (§1)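 Lung cancer cell lines in 1536-well plates got either a single drug or a fixed anchor-drug dose together with five library-drug doses (not always all listed) in √10 steps, by pin tool, on the day after seeding. Nuclei were counted after 5 days, and relative viability is the treated-to-vehicle ratio of nuclei counts. Values are medians of duplicate plates.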

[2] = compound: CC1=C(C=CC(=C1)[N+](=O)[O-])NS(=O)(=O)C2=C(C=CC(=C2)Cl)Cl [FH535] + Cc1cc(Nc2cc(N3CCN(C)CC3)nc(Sc3ccc(NC(=O)C4CC4)cc3)n2)n[nH]1 [Tozasertib] (partner 0.1 µM)
How it was run: as §1

[3] = compound: CC1=C(C=CC(=C1)[N+](=O)[O-])NS(=O)(=O)C2=C(C=CC(=C2)Cl)Cl [FH535] + CC1(C)CCC(c2ccc(Cl)cc2)=C(CN2CCN(c3ccc(C(=O)NS(=O)(=O)c4ccc(N[C@H](CCN5CCOCC5)CSc5ccccc5)c(S(=O)(=O)C(F)(F)F)c4)cc3)CC2)C1 [Navitoclax] (partner 0.5 µM)
How it was run: as §1

[4] = compound: CC1=C(C=CC(=C1)[N+](=O)[O-])NS(=O)(=O)C2=C(C=CC(=C2)Cl)Cl [FH535] + Nc1ncn([C@H]2C[C@H](O)[C@@H](CO)O2)c(=O)n1 [Decitabine] (partner 2 µM)
How it was run: as §1

[5] = compound: CC1=C(C=CC(=C1)[N+](=O)[O-])NS(=O)(=O)C2=C(C=CC(=C2)Cl)Cl [FH535] + COc1cc2c(Oc3ccc(NC(=O)C4(C(=O)Nc5ccc(F)cc5)CC4)cc3F)ccnc2cc1OCCCN1CCOCC1 [Foretinib] (partner 0.25 µM)
How it was run: as §1

Cell Line	relative viability ([1]; first compound 0.04 µM)	relative viability ([1]; first compound 0.1265 µM)	relative viability ([1]; first compound 0.4 µM)	relative viability ([1]; first compound 1.265 µM)	relative viability ([2]; first compound 0.04 µM)	relative viability ([2]; first compound 0.1265 µM)	relative viability ([2]; first compound 0.4 µM)	relative viability ([2]; first compound 1.265 µM)	relative viability ([3]; first compound 0.04 µM)	relative viability ([3]; first compound 0.1265 µM)	relative viability ([3]; first compound 0.4 µM)	relative viability ([3]; first compound 1.265 µM)	relative viability ([4]; first compound 0.04 µM)	relative viability ([4]; first compound 0.1265 µM)	relative viability ([4]; first compound 0.4 µM)	relative viability ([4]; first compound 1.265 µM)	relative viability ([5]; first compound 0.04 µM)	relative viability ([5]; first compound 0.1265 µM)	relative viability ([5]; first compound 0.4 µM)	relative viability ([5]; first compound 1.265 µM)
LU99A	0.435	0.439	0.468	0.507	0.297	0.281	0.329	0.273	0.716	0.667	0.844	0.844	0.789	0.944	0.841	0.794	0.706	0.865	0.736	0.761
LXF-289	0.205	0.262	0.225	0.212	0.191	0.172	0.166	0.136	0.996	0.936	0.945	0.645	0.357	0.422	0.369	0.336	0.975	0.983	0.862	0.684
NCI-H23	0.769	0.529	0.61	0.731	0.281	0.344	0.466	0.301		0.821	0.818	0.703	0.299	0.31	0.347	0.318	0.469	1.07	0.953	0.636
NCI-H322M	0.255	0.268	0.238	0.219	0.493	0.514	0.475	0.468	1.13	1.39	1.19	1.2	0.677	0.711	0.694	0.682	0.966	1	0.961	0.882
NCI-H441	0.436	0.518	0.527	0.472	0.614	0.755	0.581	0.564	0.669	0.773	0.502	0.365	0.221	0.263	0.265	0.252	0.959	0.97	1.08	0.801
NCI-H460	0.356	0.546	0.452	0.337	0.219	0.5	0.382	0.21	1.15	1.25	1.11	0.696	0.442	0.608	0.493	0.347	1.05	1.05	0.937	0.654
NCI-H520	0.203	0.193	0.2	0.19	0.375	0.44	0.393	0.401	1.11	1.09	1.06	0.882	0.462	0.488	0.521	0.355	0.684	0.781	0.574	0.875
NCI-H596	0.673	0.574	0.604	0.55	0.947	0.992	0.931	0.696	0.856	0.967	1.05	0.874	0.983	1.06	1	0.976	0.833	0.899	0.852	0.819
NCI-H647	0.183	0.193	0.129	0.152	0.314	0.145	0.176	0.42	1.06	1.2	1.1	0.919	0.311	0.362	0.364	0.334	1.14	1.22	1.13	1.14
NCI-H727	0.405	0.434	0.364	0.402	0.465	0.545	0.582	0.504	0.479	0.39	0.369	0.381	0.845	0.945	0.851	0.877	1.04	0.637	0.925	0.684
NCI-H838	0.276	0.291	0.284	0.269	0.286	0.246	0.272	0.19	1.16	1.24	1.07	0.969	0.39	0.498	0.387	0.345	1.03	1.11	0.933	0.823
NCI-H1355	0.723	0.692	0.57	0.605	0.507	0.584	0.557	0.399	0.862	0.998	0.88	0.66	0.334	0.325	0.368	0.36	1.03	1	0.904	0.582
NCI-H1395	0.361	0.402	0.413	0.344	0.68	0.872	0.774	0.678	1	1.23	1.06	0.895	0.632	0.685	0.702	0.653	0.952	0.967	0.868	0.831
NCI-H1437	0.372	0.405	0.184	0.109	0.425	0.404	0.358	0.22	1.07	1.06	0.867	0.461	0.526	0.554	0.488	0.344	1.27	1.21	0.924	0.425
NCI-H1650	0.281	0.299	0.3	0.297	0.369	0.425	0.513	0.343	1.17	1.27	1.17	0.856	0.323	0.427	0.46	0.442	0.966	1.28	1.01	0.825
